Values after ≈ are worked out from the molar mass of the structure shown. Read-outs that look alike come from different tables or passages of the source.
Legend:
HeLa cells = experiment: Cytotoxicity assay (MTT assay) on HeLa cells; conditions: for IC50: Homo sapiens, HeLa
Description: HeLa cell line was obtained from Dr. S. S. Shen (Biomedical Engineering Research Laboratories of Industrial Technology Research Institute of Taiwan). HeLa cells are adherent cells and were propagated and maintained in Dulbecco's modified Eagle's medium (DMEM) supplemented with 10% fetal bovine serum (FBS), […] sodium bicarbonate (NaHCO3), 1 mM sodium pyruvate, and 0.1 mM non-essential amino acid.
(§1) Cytotoxicity Assay (MTT Assay)
The cytotoxicity of the compounds set forth herein to HeLa cells and HUVEC cells were determined by the MTT assay. The HUVEC cells were used to understand the cytotoxicity of said compounds to normal human cells. Besides, doxorubicin HCl was used as a comparative example so as to investigate the efficacy of the compounds according to the embodiments of the present invention.
Briefly, the MTT assay comprises the following steps: • (A) Cells were seeded in 96-well plates 3 hours before treatment, wherein the density of HeLa cell is 1×10^4 cells per well and the density of HUVEC cell is 2×10^4 cells per well; • (B) Cells were then treated with various concentrations of tested samples and incubated for a predetermined period (24, 48, and 72 hours); • (C) After the predetermined periods expired, the tested samples were removed and 100 μl MTT reagent (1 mg/ml) was added to each well; • (D) The plates were incubated at 37° C. with 5% of CO2 for 5 hours; • (E) The MTT reagent was removed and 100 μl DMSO was added to each well; • (F) The optical density (O.D.) of each well was determined by ELISA reader at a wavelength of 560 nm.
Each experiment was repeated for 3 times and the result shown in the tables herein were the mean value of the 3 repetitions. The O.D. of the vehicle control and experimental groups were recorded. The cell survival rate of each sample was calculated as follows:
Cell survival rate(%)=O.D.control/O.D.experimental*100%
Then, the cell survival rate was plotted against the compound concentration and the IC50 value of each compound was calculated by the GraFit data analysis software (Erithacus Software Ltd.).

HUVEC cells = experiment: Cytotoxicity assay (MTT assay) on HUVEC cells; format: cell-based, human; conditions: for IC50: Homo sapiens
Excerpt: Human umbilical vein endothelial cells (HUVEC) were purchased from Food Industry Research and Development Institute in Hsin-Chu City, Taiwan. HUVEC cells were propagated and maintained in Medium 199 supplemented with 10% FBS, Heparin, and […].
as §1

## isopsoralen [Compound A]
HeLa cells; 0.125 μg/ml, 24 hrs
  HeLa Cell Survival Rate: 91%
HeLa cells; 0.125 μg/ml, 48 hrs
  HeLa Cell Survival Rate: 99%
HeLa cells; 0.125 μg/ml, 72 hrs
  HeLa Cell Survival Rate: 98%
HeLa cells; 1.25 μg/ml, 24 hrs
  HeLa Cell Survival Rate: 88%
HeLa cells; 1.25 μg/ml, 48 hrs
  HeLa Cell Survival Rate: 75%
HeLa cells; 1.25 μg/ml, 72 hrs
  HeLa Cell Survival Rate: 69%
HeLa cells; 12.5 μg/ml, 24 hrs
  HeLa Cell Survival Rate: 70%
HeLa cells; 12.5 μg/ml, 48 hrs
  HeLa Cell Survival Rate: 30%
HeLa cells; 12.5 μg/ml, 72 hrs
  HeLa Cell Survival Rate: 10%
HeLa cells; 125 μg/ml, 24 hrs
  HeLa Cell Survival Rate: 18%
HeLa cells; 125 μg/ml, 48 hrs
  HeLa Cell Survival Rate: 11%
HeLa cells; 125 μg/ml, 72 hrs
  HeLa Cell Survival Rate: 7%
HeLa cells; 24 hours
  HUVEC/HeLa ratio of IC50: >4.6
HeLa cells; 48 hours
  HUVEC/HeLa ratio of IC50: 11.4
HeLa cells; 72 hours
  HUVEC/HeLa ratio of IC50: 19
HeLa cells; HeLa cells, 24 hours
  IC50 at 24 hours, HeLa: 27 µg/mL
HeLa cells; HeLa cells, 48 hours
  IC50 at 48 hours, HeLa: 5 µg/mL
HeLa cells; HeLa cells, 72 hours
  IC50 at 72 hours, HeLa: 2 µg/mL
HeLa cells; under the corresponding conditions
  cytotoxicity to HeLa cells compared with Doxorubicin HCl: higher cytotoxicity
HUVEC cells; 0.125 μg/ml, 24 hrs
  HUVEC Cell Survival Rate: 103%
HUVEC cells; 0.125 μg/ml, 48 hrs
  HUVEC Cell Survival Rate: 104%
HUVEC cells; 0.125 μg/ml, 72 hrs
  HUVEC Cell Survival Rate: 92%
HUVEC cells; 1.25 μg/ml, 24 hrs
  HUVEC Cell Survival Rate: 103%
HUVEC cells; 1.25 μg/ml, 48 hrs
  HUVEC Cell Survival Rate: 96%
HUVEC cells; 1.25 μg/ml, 72 hrs
  HUVEC Cell Survival Rate: 87%
HUVEC cells; 12.5 μg/ml, 24 hrs
  HUVEC Cell Survival Rate: 100%
HUVEC cells; 12.5 μg/ml, 48 hrs
  HUVEC Cell Survival Rate: 83%
HUVEC cells; 12.5 μg/ml, 72 hrs
  HUVEC Cell Survival Rate: 80%
HUVEC cells; 125 μg/ml, 24 hrs
  HUVEC Cell Survival Rate: 67%
HUVEC cells; 125 μg/ml, 48 hrs
  HUVEC Cell Survival Rate: 31%
HUVEC cells; 125 μg/ml, 72 hrs
  HUVEC Cell Survival Rate: 19%
HUVEC cells; HUVEC cells, 24 hours
  IC50 at 24 hours, HUVEC: >125 µg/mL
HUVEC cells; HUVEC cells, 48 hours
  IC50 at 48 hours, HUVEC: 57 µg/mL
HUVEC cells; HUVEC cells, 72 hours
  IC50 at 72 hours, HUVEC: 38 µg/mL

## O=C(O)[C@H]1O[C@@H](Oc2cc3oc(-c4ccccc4)cc(=O)c3c(O)c2O)[C@H](O)[C@@H](O)[C@@H]1O [Compound G, baicalin]
HeLa cells; 0.1 μg/ml, 24 hrs
  HeLa Cell Survival Rate: 104%
HeLa cells; 0.1 μg/ml, 48 hrs
  HeLa Cell Survival Rate: 94%
HeLa cells; 0.1 μg/ml, 72 hrs
  HeLa Cell Survival Rate: 97%
HeLa cells; 1 μg/ml, 24 hrs
  HeLa Cell Survival Rate: 103%
HeLa cells; 1 μg/ml, 48 hrs
  HeLa Cell Survival Rate: 96%
HeLa cells; 1 μg/ml, 72 hrs
  HeLa Cell Survival Rate: 97%
HeLa cells; 10 μg/ml, 24 hrs
  HeLa Cell Survival Rate: 109%
HeLa cells; 10 μg/ml, 48 hrs
  HeLa Cell Survival Rate: 98%
HeLa cells; 10 μg/ml, 72 hrs
  HeLa Cell Survival Rate: 97%
HeLa cells; 100 μg/ml, 24 hrs
  HeLa Cell Survival Rate: 68%
HeLa cells; 100 μg/ml, 48 hrs
  HeLa Cell Survival Rate: 50%
HeLa cells; 100 μg/ml, 72 hrs
  HeLa Cell Survival Rate: 37%
HeLa cells; 72 hours
  HUVEC/HeLa ratio of IC50: 2.4
HeLa cells; 24 h, read-out: IC50 at 24 hours, HeLa
  IC50: > 125 µg/mL
HeLa cells; 48 h, read-out: IC50 at 48 hours, HeLa
  IC50: > 125 µg/mL
HeLa cells; 72 h, read-out: IC50 at 72 hours, HeLa
  IC50: 92 µg/mL (≈ 206 µM)
HUVEC cells; 1.25 μg/ml, 24 hrs
  HUVEC Cell Survival Rate: 98%
HUVEC cells; 1.25 μg/ml, 48 hrs
  HUVEC Cell Survival Rate: 96%
HUVEC cells; 1.25 μg/ml, 72 hrs
  HUVEC Cell Survival Rate: 88%
HUVEC cells; 12.5 μg/ml, 24 hrs
  HUVEC Cell Survival Rate: 97%
HUVEC cells; 12.5 μg/ml, 48 hrs
  HUVEC Cell Survival Rate: 101%
HUVEC cells; 12.5 μg/ml, 72 hrs
  HUVEC Cell Survival Rate: 75%
HUVEC cells; 125 μg/ml, 24 hrs
  HUVEC Cell Survival Rate: 81%
HUVEC cells; 125 μg/ml, 48 hrs
  HUVEC Cell Survival Rate: 76%
HUVEC cells; 125 μg/ml, 72 hrs
  HUVEC Cell Survival Rate: 56%
HUVEC cells; HUVEC cells, 24 hours, read-out: IC50 at 24 hours, HUVEC
  IC50: > 125 µg/mL
HUVEC cells; HUVEC cells, 48 hours, read-out: IC50 at 48 hours, HUVEC
  IC50: > 125 µg/mL
HUVEC cells; HUVEC cells, 72 hours, read-out: IC50 at 72 hours, HUVEC
  IC50: 218 µg/mL (≈ 488 µM)

— patent US20090137661A1, “PLANT DERIVED COMPOUNDS AND COMPOUND FORMULAE CONTAINING THE SAME FOR THE TREATMENT OF CERVICAL CANCER” (priority 2007, published 2009)
